The text below walks through data of US20180339015A1, “Therapeutic Nanoparticles Comprising An Antibiotic and Methods of Making and Using Same” (priority 2015, published 2018).

The subject of one series is Citrobacter spp. The note with it: cited from earlier work.
In a further series the test system is K. pneumoniae. The note with it: cited from earlier work.
For the next series, the system named is Acinetobacter species. The note with it: cited from earlier work.
In the next series the test system is Salmonella spp. The note with it: cited from earlier work.
The next series relates to Enterobacter spp. The note with it: cited from earlier work.
The test system of a further series is P. aeruginosa. The note with it: cited from earlier work.
Another series deals with Shigella spp. The note with it: cited from earlier work.
The next series deals with E. coli. The note with it: cited from earlier work.
The conditions of series [1]: mice, intravenous injection.
A further series concerns Klebsiella. The experiment in a line: Klebsiella thigh infection model, efficacy and biodistribution. Type of series: in vivo. The procedure: CS-NPs were further tested for their efficacy and biodistribution in a Klebsiella thigh infection model. […] In summary. CS-NPs have the same efficacy as free CS in a thigh infection model after 24 hours.
Another series relates to K. pneumonia. The experiment in a line: K. pneumonia lung infection model. The note with it: single 40 mg/kg dose s.c., n=6. It is filed as in vivo. The protocol: CS-NPs were tested for their efficacy in a K. pneumonia lung infection model. Results are depicted in FIG. 11.

As to colistin, the MIC90 with Citrobacter spp was not above 1 µg/mL; in the series on K. pneumoniae it was not above 1 µg/mL; in the series on Acinetobacter species, not above 2 µg/mL; with Salmonella spp it was not above 1 µg/mL; in the series on P. aeruginosa it was not above 4 µg/mL; with Shigella spp, not above 0.5 µg/mL. Also, the MIC90 in the series with E. coli was not above 2 µg/mL. Moreover, in the series on Enterobacter spp, the MIC50 was not above 1 µg/mL.
On to colistin sulphate [CS], for which, in series [1], the “LD50” value amounted to 6 mg/kg and the “MTD” value stood at 2 mg/kg. Besides, the bacteremia result with Klebsiella (thigh infection model) is recorded as “prevented bacteremia”. In the series on Klebsiella (thigh, after 24 hours), the “bacteria counts in site of infection” value was “significantly decreased bacteria counts”. This substance had an animals sterilized in the series on K. pneumonia of 50%.
